Legend:
Acute toxicity, rat = format: in vivo; details: in vivo, po, Table 7, p.o., read-out: Presumed LD50
Protocol: (§1) The acute toxicity of the compounds of the invention was examined by the following method.
(§2) Male ddy-strain 5-week old mice and male Wistar-strain 8 week old rats, five per group, were used as experimental animals. Each of the compounds was dissolved in saline and administered perorally, and the toxicity of the compound was assessed 24 hours after the administration.

rats = experiment: Acute toxicity, rat; format: in vivo; details: Table 7, 1700 mg/kg p.o., 24 hours
Protocol: as §1, §2

mice = experiment: Acute toxicity, mouse; format: in vivo; details: 24 hours
Protocol: as §1, §2

[1] = system: human neuroblastoma cell line GOTO; experiment: Activity on neuroblastoma cell line GOTO (cell number, number and length of neurites); format: cell-based; details: for Length of neurites (mean ± S.D.): control 42.48 ± 19.64, all *P <0.01; for Number of neurites/cell (mean ± S.D.): control 1.79 ± 0.80
Summary of the method: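 GOTO cells were cultured 1–2 days at 37 °C, 5% CO2, then switched to serum-free RPMI/MEM (1:1) with compounds in PBS at various concentrations for 24 h. Living cells were counted by erythrosine exclusion (3–6 dishes); neurite number and length per cell were measured from photographs.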

[2] = system: mouse neuroblastoma cell line neuro-2a; experiment: Activity on neuro-2a, cells with outgrown neurites; format: cell-based; details: Table 3 Run No. 6, control 4.4 ± 0.9
Summary of the method: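 Mouse neuro-2a cells in DMEM with FCS exposed to compounds for 24 h (up to 6 concentrations, triplicate runs), glutaraldehyde-fixed and methylene blue-stained. Proportion of cells bearing a neurite at least twice the cell's long diameter counted microscopically over ≥200 cells.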

[3] = system: mouse neuroblastoma cell line neuro-2a; experiment: Activity on cell line neuro-2a (simple method); format: cell-based; details: Table 2 neuro-2a Run No. 2, control 7.9
Protocol: The biological activities in vitro of the compounds of formula (I) on cells of the nervous system were tested. The cells tested were human neuroblastoma cell line GOTO [see Sekiguchi, M., Oota, T., Sakakibara, K., Inui, N. & Fujii, G., Japan. J. Exp. Med., 49, 67-83 (1979)], and neuroblastoma cell line NB-1 [see Miyake, S., Shimo, Y., Kitamura, T., Nojyo, Y., Nakamura, T., Imkashuku, S. and Abe, T., The Autonomic Nervous System, 10, 115-120 (1973)], and mouse neuroblastoma cell line neuro-2a (Dainippon Pharmaceutical Co., Ltd.) which have been established as the cells of the nervous system. The above neuve cells were grown in an incubator at 37° C. in the presence of 5% carbon dioxide gas exponentially, and then cultivated for a certain period of time together with the compounds of formula (I). […]
As a simple method of evaluation, the number of cells have neurites with a length equal to, or larger than, the long diameter of the cell was divided by the total number of cells.

[4] = Table 1, Run No. 6 by footnote, 10 μg/ml

## CCN1Cc2nc(N3CCNCC3)ncc2C1=O [Compound 616]
Acute toxicity, rat
  LD50 at 24 h: > 1700 mg/kg
rats
  Number of dead animals/number of test animals: 0/5
mice; Table 7, 1000 mg/kg p.o.
  Number of dead animals/number of test animals: 0/5
mice; Table 7, 1700 mg/kg p.o.
  Number of dead animals/number of test animals: 0/5
mice; Table 7, 3000 mg/kg p.o.
  Number of dead animals/number of test animals: 4/5
[1]; Table 1, Run No. 6 by footnote, 1 μg/ml
  Length of neurites (mean ± S.D.): 56.68 ± 23.36 μm/cell
[1]; [4]
  Number of neurites/cell (mean ± S.D.): 2.13 ± 0.91 neurites/cell
  Length of neurites (mean ± S.D.): 57.96 ± 27.96 μm/cell
[1]; Table 1, second control group (Run No. 6 by footnote), 1 μg/ml
  Number of neurites/cell (mean ± S.D.): 2.04 ± 0.91 neurites/cell
[2]; 0.3 mM
  Cells having neurites with a length at least twice the long diameter of cell/total number of cells: 10.6 ± 1.5%
[2]; 1 mM
  Cells having neurites with a length at least twice the long diameter of cell/total number of cells: 10.3 ± 1.4%
[3]; 1 μg/ml
  Average of the proportions: 15.79%
[3]; 10 μg/ml
  Average of the proportions: 18.40%
